# In patent publication US10047098B2, “C5-C6-oxacyclic fused iminopyrimidinone compounds as bace inhibitors, compositions, and their use” (Merck Sharp & Dohme Corp., priority 2014, dated 2018):
# Experiments:
# [1] = target: Recombinant human soluble BACE1 catalytic domain (Homo sapiens (Human), UniProt P56817); test: BACE1 HTRF FRET Assay; format: biochemical; conditions: Ki calculated from IC50 using the Cheng-Prusoff equation; QSY7-APPswe-Eu substrate, pH 5.0; read-out: BACE-1 Ki
# In short: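 Purified BACE1 catalytic domain (3 nM as added) is preincubated with inhibitor for 30 min at 30 °C in 20 mM Na-acetate pH 5.0, 10% glycerol, 0.1% Brij-35, 7.5% DMSO. QSY7-APP^swe-Eu substrate (200 nM final) is then cleaved for 1.5 h at 30 °C and read as time-resolved 620 nm fluorescence. IC50s come from nonlinear regression, and Ki from Cheng-Prusoff using substrate Km 8 μM.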
# [2] = target: purified human autoBACE-2 (Homo sapiens (Human), UniProt Q9Y5Z0); test: BACE-2 Assay (BACE-HTRF assay); format: biochemical; conditions: Ki calculated from IC50 using the Cheng-Prusoff equation; QSY7-EISEVNLDAEFC-Eu-amide substrate, pH 5.0
# Chain of purified human autoBACE-2 (Q9Y5Z0 63-473 limits assumed): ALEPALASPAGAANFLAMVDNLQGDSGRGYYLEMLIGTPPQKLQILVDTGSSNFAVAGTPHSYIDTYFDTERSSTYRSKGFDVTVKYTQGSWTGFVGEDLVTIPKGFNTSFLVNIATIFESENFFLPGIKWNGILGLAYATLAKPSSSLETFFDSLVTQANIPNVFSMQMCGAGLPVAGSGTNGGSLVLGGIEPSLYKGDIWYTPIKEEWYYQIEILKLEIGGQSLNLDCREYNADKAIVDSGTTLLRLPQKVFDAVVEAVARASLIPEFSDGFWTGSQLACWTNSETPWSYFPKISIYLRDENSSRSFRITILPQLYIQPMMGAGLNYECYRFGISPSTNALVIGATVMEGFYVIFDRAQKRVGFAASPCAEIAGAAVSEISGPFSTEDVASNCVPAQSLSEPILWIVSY
# In short: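 Endpoint proteolysis of a QSY7/europium FRET peptide by purified human autoBACE-2, 5% DMSO final, read by time-resolved fluorescence at 620 nm after 320 nm excitation.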
# Chain of Recombinant human soluble BACE1 catalytic domain (P56817 75-416): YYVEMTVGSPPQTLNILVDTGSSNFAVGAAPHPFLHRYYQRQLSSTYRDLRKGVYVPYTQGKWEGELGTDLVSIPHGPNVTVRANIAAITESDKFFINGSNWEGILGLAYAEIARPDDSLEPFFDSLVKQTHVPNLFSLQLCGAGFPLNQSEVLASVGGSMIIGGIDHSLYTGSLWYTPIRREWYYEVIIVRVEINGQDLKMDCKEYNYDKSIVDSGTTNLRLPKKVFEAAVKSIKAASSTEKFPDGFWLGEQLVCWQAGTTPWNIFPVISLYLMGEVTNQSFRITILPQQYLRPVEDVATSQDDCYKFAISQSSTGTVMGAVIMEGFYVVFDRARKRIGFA
Ki [1],Ki [2],Compound
636 nM,4610 nM,"CN1C(=N)N[C@@]2(c3cc(OCC(F)(F)F)ccc3F)CO[C@@H](C3CC3)C[C@H]2C1=O [Example 55, (4aR,6R,8aS)-6-cyclopropyl-8a-(2-fluoro-5-(2,2,2-trifluoroethoxy)phenyl)-2-imino-3-methylhexahydro-1H-pyrano[3,4-d]pyrimidin-4(4aH)-one]"
3.2 nM,0.76 nM,"CN1C(=N)N[C@@]2(c3cc(OCC4CC4)ccc3F)CO[C@@H](c3ccc(F)cc3)C[C@H]2C1=O [Example 85, (4aR,6R,8aS)-8a-(5-(cyclopropylmethoxy)-2-fluorophenyl)-6-(4-fluorophenyl)-2-imino-3-methylhexahydro-1H-pyrano[3,4-d]pyrimidin-4(4aH)-one]"
4 nM,2 nM,"C[C@H]1C[C@H]2C(=O)N(C)C(=N)N[C@@]2(c2cc(Oc3ncccc3F)c(F)cc2F)CO1 [Example 10, (4aR,6S,8aS)-8a-(2,4-difluoro-5-((3-fluoropyridin-2-yl)oxy)phenyl)-2-imino-3,6-dimethylhexahydro-1H-pyrano[3,4-d]pyrimidin-4(4aH)-one]"
8.9 nM,24 nM,"C[C@H]1C[C@H]2C(=O)N(C)C(=N)N[C@@]2(c2cc(Oc3ncc(F)cc3F)ccc2F)CO1 [Example 36, (4aR,6S,8aS)-8a-(5-((3,5-difluoropyridin-2-yl)oxy)-2-fluorophenyl)-2-imino-3,6-dimethylhexahydro-1H-pyrano[3,4-d]pyrimidin-4(4aH)-one]"
8 nM,98 nM,"C[C@H]1C[C@H]2C(=O)N(C)C(=N)N[C@@]2(c2cc(OCC34CC(C#N)(C3)C4)ccc2F)CO1 [Example 26, 3-((4-fluoro-3-((4aR,6S,8aS)-2-imino-3,6-dimethyl-4-oxohexahydro-1H-pyrano[3,4-d]pyrimidin-8a(8H)-yl)phenoxy)methyl)bicyclo[1.1.1]pentane-1-carbonitrile]"
13 nM,73 nM,"CN1C(=N)N[C@@]2(c3cc(Oc4cnccn4)ccc3F)CO[C@@H](C3CC3)C[C@H]2C1=O [Example 39, (4aR,6R,8aS)-6-cyclopropyl-8a-(2-fluoro-5-(pyrazin-2-yloxy)phenyl)-2-imino-3-methylhexahydro-1H-pyrano[3,4-d]pyrimidin-4(4aH)-one]"
11 nM,109 nM,"CN1C(=N)N[C@@]2(c3cc(Oc4ncc(F)cc4F)ccc3F)CO[C@@H](C3CC3)C[C@H]2C1=O [Example 18, (4aR,6R,8aS)-6-cyclopropyl-8a-(5-((3,5-difluoropyridin-2-yl)oxy)-2-fluorophenyl)-2-imino-3-methylhexahydro-1H-pyrano[3,4-d]pyrimidin-4(4aH)-one]"
7 nM,51 nM,"COc1cncc(Oc2ccc(F)c([C@]34CO[C@@H](C5CC5)C[C@H]3C(=O)N(C)C(=N)N4)c2)n1 [Example 42, (4aR,6R,8aS)-6-cyclopropyl-8a-(2-fluoro-5-((6-methoxypyrazin-2-yl)oxy)phenyl)-2-imino-3-methylhexahydro-1H-pyrano[3,4-d]pyrimidin-4(4aH)-one]"
66 nM,64 nM,"CCCOc1ccc(F)c([C@]23CO[C@@H](C4CC4)C[C@H]2C(=O)N(C)C(=N)N3)c1 [Example 49, (4aR,6R,8aS)-6-cyclopropyl-8a-(2-fluoro-5-propoxyphenyl)-2-imino-3-methylhexahydro-1H-pyrano[3,4-d]pyrimidin-4(4aH)-one]"
11 nM,10 nM,"CN1C(=N)N[C@@]2(c3cc(OCC4CC4)ccc3F)CO[C@@H](C3CC3)C[C@H]2C1=O [Example 24, (4aR,6R,8aS)-6-cyclopropyl-8a-(5-(cyclopropylmethoxy)-2-fluorophenyl)-2-imino-3-methylhexahydro-1H-pyrano[3,4-d]pyrimidin-4(4aH)-one]"
21 nM,9 nM,"COC[C@H]1C[C@H]2C(=O)N(C)C(=N)N[C@@]2(c2cc(OCC3CC3)ccc2F)CO1 [Example 32, (4aR,6R,8aS)-8a-(5-(cyclopropylmethoxy)-2-fluorophenyl)-2-imino-6-(methoxymethyl)-3-methylhexahydro-1H-pyrano[3,4-d]pyrimidin-4(4aH)-one]"
55 nM,42 nM,"CN1C(=N)N[C@@]2(c3cc(OCC4CC(F)(F)C4)ccc3F)CO[C@@H](C3CC3)C[C@H]2C1=O [Example 51, (4aR,6R,8aS)-6-cyclopropyl-8a-(5-((3,3-difluorocyclobutyl)methoxy)-2-fluorophenyl)-2-imino-3-methylhexahydro-1H-pyrano[3,4-d]pyrimidin-4(4aH)-one]"
20 nM,32.9 nM,"C[C@H]1C[C@H]2C(=O)N(C)C(=N)N[C@@]2(c2cc(Oc3cncc(F)c3)ccc2F)CO1 [Example 78, (4aR,6S,8aS)-8a-(2-fluoro-5-((5-fluoropyridin-3-yl)oxy)phenyl)-2-imino-3,6-dimethylhexahydro-1H-pyrano[3,4-d]pyrimidin-4(4aH)-one]"
13 nM,86 nM,CN1C(=N)N[C@@]2(c3cc(Oc4cccc(-c5cocn5)c4)ccc3F)CO[C@@H](C3CC3)C[C@H]2C1=O [Example 35]
2 nM,8 nM,"CN1C(=N)N[C@@]2(c3cc(Oc4ncccc4F)ccc3F)CO[C@@H](C3CC3)C[C@H]2C1=O [Example 15, (4aR,6R,8aS)-6-cyclopropyl-8a-(2-fluoro-5-((3-fluoropyridin-2-yl)oxy)phenyl)-2-imino-3-methylhexahydro-1H-pyrano[3,4-d]pyrimidin-4(4aH)-one]"
37.6 nM,9.67 nM,"C[C@H]1C[C@H]2C(=O)N(C)C(=N)N[C@@]2(c2cc(Oc3ncccc3Cl)ccc2F)CO1 [Example 72, (4aR,6S,8aS)-8a-(5-((3-chloropyridin-2-yl)oxy)-2-fluorophenyl)-2-imino-3,6-dimethylhexahydro-1H-pyrano[3,4-d]pyrimidin-4(4aH)-one]"
26.8 nM,20.7 nM,"C[C@H]1C[C@H]2C(=O)N(C)C(=N)N[C@@]2(c2cc(Oc3cccnc3)ccc2F)CO1 [Example 81, (4aR,6S,8aS)-8a-(2-fluoro-5-(pyridin-3-yloxy)phenyl)-2-imino-3,6-dimethylhexahydro-1H-pyrano[3,4-d]pyrimidin-4(4aH)-one]"
21 nM,4 nM,"CN1C(=N)N[C@@]2(c3cc(OCC45CC(C4)C5)ccc3F)CO[C@@H](C3CC3)C[C@H]2C1=O [Example 54, (4aR,6R,8aS)-8a-(5-(bicyclo[1.1.1]pentan-1-ylmethoxy)-2-fluorophenyl)-6-cyclopropyl-2-imino-3-methylhexahydro-1H-pyrano[3,4-d]pyrimidin-4(4aH)-one]"
1110 nM,1380 nM,"COC(=O)[C@@H]1C[C@H]2C(=O)N(C)C(=N)N[C@@]2(c2ccc(F)cc2F)CO1 [Example 48, methyl (4aR,6S,8aS)-8a-(2,4-difluorophenyl)-2-imino-3-methyl-4-oxooctahydro-1H-pyrano[3,4-d]pyrimidine-6-carboxylate]"
180 nM,117 nM,"COC1CC(COc2ccc(F)c([C@]34CO[C@@H](C5CC5)C[C@H]3C(=O)N(C)C(=N)N4)c2)C1 (stereo partly drawn) [Example 53, (4aR,6R,8aS)-6-cyclopropyl-8a-(2-fluoro-5-((3-methoxycyclobutyl)methoxy)phenyl)-2-imino-3-methylhexahydro-1H-pyrano[3,4-d]pyrimidin-4(4aH)-one]"
2 nM,4 nM,"C[C@H]1C[C@H]2C(=O)N(C)C(=N)N[C@@]2(c2cc(Oc3cc(C#N)ccn3)c(F)cc2F)CO1 [Example 9, 2-(2,4-difluoro-5-((4aR,6S,8aS)-2-imino-3,6-dimethyl-4-oxohexahydro-1H-pyrano[3,4-d]pyrimidin-8a(8H)-yl)phenoxy)isonicotinonitrile]"
4180 nM,1590 nM,"C[C@H]1C[C@H]2C(=O)N(C)C(=N)N[C@@]2(c2cc(=O)n(CC3CC3)cc2F)CO1 [Example 94, (4aR,6S,8aS)-8a-(1-(cyclopropylmethyl)-5-fluoro-2-oxo-1,2-dihydropyridin-4-yl)-2-imino-3,6-dimethylhexahydro-1H-pyrano[3,4-d]pyrimidin-4(4aH)-one]"

Compound,Ki [1],Ki [2]
"CN1C(=N)N[C@@]2(c3cc(OC4CC(F)(F)C4)ccc3F)CO[C@@H](C3CC3)C[C@H]2C1=O [Example 57, (4aR,6R,8aS)-6-cyclopropyl-8a-(5-(3,3-difluorocyclobutoxy)-2-fluorophenyl)-2-imino-3-methylhexahydro-1H-pyrano[3,4-d]pyrimidin-4(4aH)-one]",43 nM,41 nM
